Legend:
[1] = test system: MDA-MB-435S; assay: functional siRNA cell proliferation assay (CTG assay, microscopy); type: cell-based, human; conditions: MDA-MB-435S (Melanoma); 5 txns; 10 days expt; n=4
Source text: (§1) FIGS. 10 A-E illustrate graphs of the effects of siCD320 and siLRP2 on cell proliferation—Cell lines representative of several types of cancers (breast, prostate, skin) were transfected with individual or combinations of siRNAs targeting CD320 (OSC17, OSC47) or LRP2 (05L231, OSL245) as indicated. Cells were repeatedly transfected as outlined in Table 9 for efficient toxicity, then assayed for viability by the CTG assay. Doxorubicin-treated cells served as a positive control for cell toxicity in our assays (Table 8).
(§2) FIGS. 16 A-D illustrate plated cells showing the effects of siCD320 and siLRP2 on four cell lines. Cell lines representative of four types of cancers (breast, two prostate, skin) were transfected with siRNAs targeting CD320 (OSC17) or LRP2 (05L245) individually at 20 nM or in combination (10 nM each) or a negative control siRNA (OSS2) (20 nM) as indicated. Cells were repeatedly transfected for efficient toxicity as in Table 9 and then analyzed by microscopy as indicated.
(§3) Referring now to FIG. 16, treatment of breast, prostate, and skin cancer cells with an inhibitor of CD320 receptor or an inhibitor of LRP2 receptor or a combination of both in an amount effective to inhibit proliferation of the cancer cells as compared to the control cells treated with control siRNA is illustrated. […]

[2] = test system: A172; assay: functional siRNA cell proliferation screening (CTG assay); type: cell-based; conditions: A172 (Glioblastoma); 5 txns; 7 days expt; n=3
Procedure: as §1, with “9” for “10”, “percent cell survival” for “effects”, “(lung, brain) or normal fibroblasts” for “(breast, prostate, skin)”, “OSL245), individually at 20 nM or in combination (10 nM each), or a negative control siRNA (OSS2) (20 nM)” for “OSL245)”
as §1
(§4) Referring now to FIG. 16, treatment of breast, prostate, and skin cancer cells with an inhibitor of CD320 receptor or an inhibitor of LRP2 receptor or a combination of both in an amount effective to inhibit proliferation of the cancer cells as compared to the control cells treated with control siRNA is illustrated. MDA-MB-231, DU145, LnCAP, and MDA-MB-435S cells were plated at 20,000 cells per well in a 24-well plate. The next day, the cells were transected with 20 nM of indicated siRNAs to knock down CD320, LRP2, or scrambled control. For the combination of siRNAs, cells were treated with 10 nM of each siRNA for 20 nM total treatments. The indicated pictures of the cells were taken at the end of the experiment.

[3] = test system: HCC15; assay: as above; type: cell-based; conditions: HCC15 (Lung); 2 txns; 7 days expt; n=3
Procedure: as §1, with “9” for “10”, “percent cell survival” for “effects”, “(lung, brain) or normal fibroblasts” for “(breast, prostate, skin)”, “OSL245), individually at 20 nM or in combination (10 nM each), or a negative control siRNA (OSS2) (20 nM)” for “OSL245)”
as §1, §4

[4] = test system: GM05659; assay: as above; type: cell-based; conditions: GM05659 (Normal); 4 txns; 7 days expt; n=3
Procedure: as §1, with “9” for “10”, “percent cell survival” for “effects”, “(lung, brain) or normal fibroblasts” for “(breast, prostate, skin)”, “OSL245), individually at 20 nM or in combination (10 nM each), or a negative control siRNA (OSS2) (20 nM)” for “OSL245)”
as §1, §4

[5] = test system: U251; assay: as above; type: cell-based; conditions: U251 (Glioblastoma); 6 txns; 8 days expt; n=4
Procedure: as §1, with “9” for “10”, “percent cell survival” for “effects”, “(lung, brain) or normal fibroblasts” for “(breast, prostate, skin)”, “OSL245), individually at 20 nM or in combination (10 nM each), or a negative control siRNA (OSS2) (20 nM)” for “OSL245)”
as §1, §4

[6] = test system: H157; assay: as above; type: cell-based; conditions: H157 (Lung); 5 txns; 8 days expt; n=3
Procedure: as §1, with “9” for “10”, “percent cell survival” for “effects”, “(lung, brain) or normal fibroblasts” for “(breast, prostate, skin)”, “OSL245), individually at 20 nM or in combination (10 nM each), or a negative control siRNA (OSS2) (20 nM)” for “OSL245)”
as §1, §4

[7] = test system: MCF-7; assay: as above; type: cell-based; conditions: MCF-7 (Breast); 2 txns; 7 days expt; n=3
Procedure: as §1, with “9” for “10”, “percent cell survival” for “effects”, “(lung, brain) or normal fibroblasts” for “(breast, prostate, skin)”, “OSL245), individually at 20 nM or in combination (10 nM each), or a negative control siRNA (OSS2) (20 nM)” for “OSL245)”
as §1, §4

[8] = test system: MDA-MB-231; assay: functional siRNA cell proliferation assay (CTG assay, microscopy); type: cell-based; conditions: MDA-MB-231 (Breast); 4 txns; 11 days expt; n=6
Source text: as §1
FIGS. 11A-B illustrate the effects of siCD320 and siLRP2 molar proportions on cell proliferation with different molar proportions of siRNA targeting CD320 and siRNA targeting LRP2. Cell lines representative of two types of cancers (breast, prostate) were transfected with different proportions of siRNAs targeting CD320 (OSC17) or LRP2 (05L245) (0-20 nM) or a negative control siRNA (OSS2) as indicated. […]
FIGS. 16 A-D illustrate plated cells showing the effects of siCD320 and siLRP2 on four cell lines. […] Cells were repeatedly transfected for efficient toxicity as in Table 9 and then analyzed by microscopy as indicated.
Now, referring to FIG. 10B, MDA-MB-231 triple negative breast cancer cells were plated in a 24-well plate at 20,000 cells/well. […] At day 11, cells were analyzed for cell growth by the CTG assay. […]

[9] = test system: DU145; assay: as above; type: cell-based; conditions: DU-145 (Prostate); 4 txns; 7 days expt; n=6
Source text: as §1
FIGS. 11A-B illustrate the effects of siCD320 and siLRP2 molar proportions on cell proliferation with different molar proportions of siRNA targeting CD320 and siRNA targeting LRP2. Cell lines representative of two types of cancers (breast, prostate) were transfected with different proportions of siRNAs targeting CD320 (OSC17) or LRP2 (05L245) (0-20 nM) or a negative control siRNA (OSS2) as indicated. Cells were repeatedly transfected for efficient toxicity then assayed for viability by the CTG assay. Doxorubicin-treated cells served as a positive control for cell toxicity in our assays (Table 8).
FIGS. 16 A-D illustrate plated cells showing the effects of siCD320 and siLRP2 on four cell lines. […] Cells were repeatedly transfected for efficient toxicity as in Table 9 and then analyzed by microscopy as indicated. […]

[10] = test system: LncAP; assay: as above; type: cell-based; conditions: LnCAP (Prostate); 4 txns; 7 days expt; n=3
Source text: as §1, §2, §3

SMILES: COc1cccc2c1C(=O)c1c(O)c3c(c(O)c1C2=O)C[C@@](O)(C(=O)CO)C[C@@H]3O[C@H]1C[C@H](N)[C@H](O)[C@H](C)O1 [DOX]
- percent survival compared to negative control OSS2 [1]: 51%
- percent survival compared to negative control OSS2 [2]: 8%
- percent survival compared to negative control OSS2 [3]: 2%
- percent survival compared to negative control OSS2 [4]: 39%
- percent survival compared to negative control OSS2 [5]: 51%
- percent survival compared to negative control OSS2 [6]: 20%
- percent survival compared to negative control OSS2 [7]: 5%
- percent survival compared to negative control OSS2 [8]: 7%
- percent survival compared to negative control OSS2 [9]: 40%
- percent survival compared to negative control OSS2 [10]: 38%

Reference: patent US12305171B2, “Compositions and methods for treating cancer” (bioAffinity Technologies, Inc., priority 2018, dated 2025)
